Like-named read-outs stand apart in the source and are kept apart here.
Columns and labels:
[1] = Encapsulation efficiency of doxorubicin hydrochloride in siosomes (absorbance at 480 nm after gel filtration); format: physicochemical
Procedure: A doxorubicin hydrochloride solution at 10 mg/ml was prepared using physiological saline. The predetermined amount of the doxorubicin hydrochloride solution was added to the sugar siosome dispersion using the cationic organosilicon compounds such as 1.2-(Dimethyldecylsilyl)ethyl-beta-D-glucosamin, 2.2-(Dimethyloctylsilylcholin)ethyl-beta-D-glucopyranosid and/or 1.2-(DiN,N,N,trimethylammoniadecylsilyl)ethyl-beta-D-glucopyranosid and the mixture was adjusted to pH 7.4, using 1 N NaOH or saturated sodium hydrogencarbonate and the mixture was stirred at 65°C for 30 minutes the thereby introduce the doxorubicin hydrochloride in the siosomes.
After doxorubicin hydrochloride introduction, the sample was cooled in an ice bath. Gel filtration was conducted using a column (Sepharose 4, fast flow, having a diameter of 2.8 cm and a length of 20 cm, fully substituted with 10% sucrose (pH 6.5)) to remove the doxorubicin hydrochloride that had not been introduced in the siosomes.
The amount of the sugar silanes in the siosomes, the amounts of the doxorubicin hydrochloride encapsulated in the siosomes and the siosomes themselves were measured by the same methods as in the above examples.
Concentration of the doxorubicin hydrochloride encapsulated in the siosomes was determined by measuring absorbance at 480 nm, using a spectrophotometer for the solution prepared by adding 2 ml of methanol to 40 µl of the doxorubicin siosomes. An alternative HPLC-based assay has also been used for the quantification of the doxorubicin in the formulations.
The above procedures described in example 16 were employed to prepare the carrier siosomes systems in this example. According to these methods of preparation, a dispersion of each of the following organo-silicon compounds were prepared, using doxorubicin hydrochloride solutions at […]. • Sil 8.1: Decyldimethylsilyl-α-D-galactopyranosid • Sil 9.1: Dodecyldimethylsilyl-α-D-glucopyranosid • SIL 15: 1-O-Dioctadecylsilyl-di(2,3,4,6-O-tetracetyl-β-D-galactopyranosid) • SIL 14: 1-o-Dioctadecylsilyl-di(2,3,4,6-O-tetracetyl-β-D-glucopyranosid)1-o- • SIL17: Didodecylsilyl-di(2,3,4,6-O-tetracetyl-β-D-glucopyranosid) • SIL18: Tridodecylsilyl-(2,3,4,6-O-tetracetyl-β-D-glucopyranosid) • Sil22.1 Di(octadecanoyloxy)dimethylsilan
The following parameters have been determined: 1 Physico chemical properties 2 Encapsulated efficiency of doxorubicin 3 Stability 4 Particle size distribution prior to lyophilisation and after dehydration using sterile water for injection 5 Release profile

[2] = for Particle size range of the Doxorubicin-siosomes (nm): Example 18: doxorubicin-siosomes prepared from the single organosilicon compound; for Particle size of the siosomes (nm): Example 21 (i): nucleic acid-siosomes complex of the cationic silane; for Particle size range (nm): Example 16, Table 5: doxorubicin-sugar-siosomes of the cationic organosilicon compound
Procedure: The siosome size was measured using Zetasizer (Malvern Instruments).
The obtained test samples were analyzed using a Zetasizer from Malvern to measure the particle size of the Siosomes® and its concentration (via determination of the count rate which related to the sample quality and concentration).
The Zetasizer from Malvern performs particle size measurements using a process called Dynamic Light Scattering (DLS). Dynamic Light Scattering (also known as PCS - Photon Correlation Spectroscopy) measures Brownian motion and relates this to the size of the particles. It does this by illuminating the particles with a laser and analyzing the intensity fluctuations in the scattered light. If the particles or molecules are illuminated with a laser, the intensity of the scattered light fluctuates at a rate that is dependent upon the size of the particles as smaller particles are "kicked" further by the solvent molecules and move more rapidly.

[3] = Encapsulation efficiency of nucleic acid in cationic silane siosomes; format: physicochemical; settings: Example 21 (i): nucleic acid-siosomes complex of the cationic silane
Text: The cationic silanes-lipid mixture and/or the empty cationic siosomes (the same or different siosomes prepared from the same or different silanes) loaded with buffer and/or cations (2^+) such as Ca^2+, Zn^2+, Mg^2+ at selected pH-values, is hydrated in an appropriate medium containing the nucleic acid.
The mixture will be vortexed and/or sonicated for a period of time at suitable temperature.
Procedures for characterisation, particle stirring, stability, release, lyophilisation, sterilisation, rehydration, storage, and administration were employed according to this invention.

[4] = format: physicochemical; settings: unloaded Siosomes
Procedure: The following are the general procedures according to this invention for the preparation of the Siosomes® using ethanol injection method: • An ethanol solution of the Sugar Silane was injected rapidly into an excess of de-ionized water through a syringe equipped with a fine needle. The force of injection is in many cases sufficient to achieve a good Siosomes® suspension. In some cases the Siosomes® suspension was sonicated during the injection and afterwards for additional 15-45 minutes. The ratio of injected ethanol to water is maintained in a way that the resulting suspension contains not more than 4-7.5% ethanol. The Siosomes® suspension was prepared with a Sugar Silane concentration of 0.5-2.5 mg/ml depending on the used Silane. With this concentration, the final Siosomes® suspension is ready for use for many applications and for the preparation of the lyophilised Siosomes® powder.
The unloaded Siosomes® prepared according to the procedures of this invention using ethanolic solution injection has been investigated for stability.
The following parameters have been considered: • The optimal particle size of the Siosomes® for the further application of the Siosomes® for the encapsulation of active, for screening and for the performance of in-vitro and in-vivo animal studies • The optimal manufacturing conditions to achieve the best particle size distribution for the required particle size (approximately 90 %) • The performance of the Stability testing for the unloaded Siosomes® using the particle size measurements and their distribution • The performance of the Stability testing of the prepared unloaded Siosomes® at 4°C, 25°C and 37°C and 42°C • Stability testing of the prepared encapsulated Siosomes® at: Acidic conditions, alkaline conditions, oxidative conditions and light
All measurements are performed with a Malvern Zetaziser. The Zetasizer was programmed to perform 3 x 15 measurements for each sample. For each temperature and reading point (for each temperature test series 12 sample measurements were performed) two samples has been tested.
The count rate is measured in Kcps (Kilo counts per second), and enables the samples quality and concentration to be checked.

[5] = Intracellular distribution of Cis-Oxoplatin within the rat liver, total platinum in liver homogenate and fractions; format: in vivo; settings: for Average concentration of total platinum in the liver homogenate: 1.5 mg Cis-Oxoplatin encapsulated in Siosomes of the compound, intravenous, 3 hours after administration
Text: • 1. The objective of the study to assess the intracellular distribution of Cis-Oxoplatin (as model drug molecule) in rat liver using Cis-Oxoplatin encapsulated in Siosomes®, using the following organosilicon compounds: • a. Sugar Organosilicon Compound: Didodecylsilyi-di(2,3,4,6-O-tetraacetyl-β-D-glucopyranosid (SIL 17) • b. Cationic Sugar Organosilicon Compound: 2.2-(Dimethyloctylsilylcholin)ethyl- β-D-glucopyranosid (SIL62) • c. Anionic Sugar Organosilicon Compound: 2-(Dimethyidecylsilyl)ethyl-β-D-glucopyranosidsulfate (SIL56) • d. Zwitterionic Sugar Organosilicon Compound: 2-(N,N,N, trimethylammonianonaylsilyl)ethyl- P-D-glucopyranosidsulfate (SIL66) • e. PEGylated Organosilicon Compound: 2-(Dimethyloctylsilylcholin)ethyl-β-D-PEG-acetylglucosaminether (SIL54) • 2. The different Siosomes® using each of the above mentioned organosilicon compounds have been prepared according to the procedures of this invention. The particle size range of the Siosomes® was 120-300 nm.
The Platinum-Siosomes®-Complex formulations were supplied in vials containing 10 mg each. Before administration, the contents of each vial was dissolved using 2 ml of sterile distilled water.
Each rat was administered with 1.5 mg investigative formulation, therefore each rat was administered 300 µl.
At the start of the study, all animals in all treatment groups received 1.5 mg of investigative drug. All drugs given via intravenous route were treated in an ultrasonic bath for five minutes at room temperature.
Tissue fractionation was performed by differential centrifugation yielding 5 fractions: • a. Mitochondrial fraction • b. Cytosol • c. Lysosomes • d. Microsomal fraction • e. Membrane fraction
Animals have been sacrificed 3 hours after the administration of the Siosomes® formulations. The livers have been removed from all animals. The liver homogenate has been prepared from the liver of each treatment group and used for the fractionation of the liver cells.
Each of the animals in the treatment control group for the determination of total platinum in the liver homogenate have been administered the Drug-Siosomes® formulations in the same way/procedures as the treatment groups.
Total platinum concentrations have been determined in each fraction for the treated and untreated animal groups. • Average animal weight = 211.64 ± 21.23 g • Average liver weight = 10.40 ± 1.27 g • Average concentration of total platinum in the liver homogenate of the treatment groups (control) • Group 1: Sugar Organosilicon Compound = 2.34 ± 0.82 µg/g • Group 2: Cationic Sugar Organosilicon Compound = 4.40 ± 1.30 µg/g • Group 3: Anionic Sugar Organosilicon Compound = 2.20 ± 0.90 µg/g • Group 4: Zwitterionic Sugar Organosilicon Compound = 3.10 ± 0.70 µg/g • Group 5: PEGylated Organosilicon Compound = 2.90 ± 1.20 µg/g

[6] = Example 18: doxorubicin-siosomes prepared from the single organosilicon compound
[7] = Example 16, Table 5: doxorubicin hydrochloride in sugar siosomes of the cationic organosilicon compound

Compound | Encapsulation efficiency (%) [1, 6] | Particle size range of the Doxorubicin-siosomes (nm) [2] | Particle size of the siosomes (nm) [2] | Encapsulation efficiency (%) [3] | stability of the aqueous solutions of the Siosomes suspensions ([4]; 4°C, 25°C, 37°C and 42°C) | count rate ([4]; 42°C) | count rate ([4]; over several days) | Average concentration of total platinum in the liver homogenate ([5]; rats) | particle size diameter ([4]; 42°C) | Encapsulation efficiency (%) [1, 7] | Particle size range (nm) [2] | intracellular distribution of the encapsulated drug in all fractions ([5]; rat liver fractions (mitochondrial, cytosol, lysosomes, microsomal, membrane), intravenous application, compared with other Siosomes) | concentration of total platinum in the liver homogenate compared with the other treatment groups ([5]; rats, i.v administration of Cis-Oxoplatin Siosomes, 3 hours)
2-(N,N,N,Dimethylammonia-methyl-decylsilyl)ethyl-beta-D-glucopyranosid [SIL 65] | 60-70% | 200-250 nm | 160-240 nm | 80-85% |  |  |  |  |  |  |  |  | 
CCCCCCCCCCCC[Si](CCCCCCCCCCCC)(O[C@@H]1O[C@H](COC(C)=O)[C@@H](OC(C)=O)[C@H](OC(C)=O)[C@H]1OC(C)=O)O[C@@H]1O[C@H](COC(C)=O)[C@@H](OC(C)=O)[C@H](OC(C)=O)[C@H]1OC(C)=O [SIL 17, Didoceclylsilyl-di(2,3,4,6-O-tetraacetyl-β-D-glucopyranosid)] | 80-85% | 180-240 nm |  |  | stable for several days | drops a little bit after several days but not drastically | stable | 2.34 ± 0.82 µg/g |  |  |  |  | 
CCCCCCCCCC[Si](C)(C)CCO[C@@H]1O[C@H](CO)[C@@H](O)[C@H](O)[C@H]1O [SIL 2, 2-(Dimethyldecylsilyl)ethyl-β-D-glucopyranosid] |  |  |  |  |  |  |  |  | growing after 4 days |  |  |  | 
1. 2-(Di-N,N,N, trimethylammoniadecylsilyl) ethyl-beta-D-glucopyranosid [SIL 63] | 65-70% | 120-200 nm | 150-250 nm | 70-80% |  |  |  |  |  |  |  |  | 
2. 2-(Dimethyloctylsilylcholin) ethyl-beta-D-glucopyranosid [SIL 62] | 70-75% | 220-250 nm | 110-180 nm | 75-80% |  |  |  | 4.40 ± 1.30 µg/g |  | 70-80% | 150-220 nm | significantly higher | significantly higher
1. 2-(Dimethyldecylsilyl) ethyl-beta-D-glucosamin [SIL 61] | 80-85% | 200-220 nm | 80-120 nm | 80-85% |  |  |  |  |  | 75-82% | 120-240 nm |  | 
Di-N,N,N, trimethylammoniadidodecylsilyl-di(2,3,4,6-O-tetraacetyl-beta-D-glucopyranosid) [SIL 64] | 70-75% | 140-220 nm | 120-220 nm | 65-75% |  |  |  |  |  | 70-85% | 120-200 nm |  | 
